The text below walks through data of patent US20240382475A1, “Quinazoline Derivative, Or Preparation Method Therefor And Use Thereof” (Zhejiang Hisun Pharmaceutical Co., Ltd., priority 2021, published 2024).

The term IC50 denotes the concentration that gives 50% inhibition.

Data set [1] has as its system OCI-AML5 cells. The experiment in a line: Inhibition of OCI-AML5 cell proliferation (CellTiter-Glo). Particulars: Homo sapiens, OCI-AML-5; OCI-AML5 cells (SOS1 N233Y mutation), 120 hours. Type of data set: cell-based. Here is the method: The following method was used to determine the influence of the compounds of the present invention on OCI-AML5 cells proliferation. OCI-AML5 cells (containing SOS1 N233Y mutation) were purchased from Nanjing Kebai Biotechnology Co., Ltd. and cultured in MEMα medium containing 10% fetal bovine serum, 100 U penicillin, and 100 μg/mL streptomycin. The activities of the cells were determined by CellTiter-Glo® Luminescent Cell Viability Assay Kit (Promega, Art. No. G7573).
The experimental method was operated according to the steps in the kit instruction, which were briefly described as follows: the test compounds were first dissolved in DMSO to prepare storage solutions of 10 mM, and then diluted with culture mediums to prepare test samples. The final concentrations of the compounds were 10000 nM to 0.15 nM. Cells in logarithmic phase were inoculated in a 96-well cell culture plate with 1,000 cells per well, after cultured overnight in 5% CO2 incubator at 37° C., the test compounds were added to the incubator to continue the culture for 120 hours. After the culture was completed, 50 μL of CellTiter-Glo detection solution was added to each well, shaken for 5 minutes and then stood for 10 minutes. Then, a Luminescence mode was used to read the luminescence values of each well of the samples on a microplate reader.
Background: ATP-based viability assays read luminescence as a measure of living cells.

Data set [2] relates to p-ERK1/2 in DLD-1 cells. The experiment in a line: Inhibition of p-ERK1/2 in DLD-1 cells (Cisbio Advanced phospho-ERK1/2 kit). Type of data set: cell-based. Particulars: Homo sapiens; DLD-1 cells (KRAS G13D mutation), hEGF 5 nM stimulation; read-out: IC50 (nM) Inhibition on p-ERK½ in DLD-1 cells. The text has this:
The following method was used to determine the inhibition activities of the compounds of the present invention on p-ERK1/2 in DLD-1 cells. The Advanced phospho-ERK1/2 (Thr202/tyr2O4) kit (Art. No. 64AERPEH) from Cisbio was used in this method. Please refer to the kit instruction for detailed experimental operations. DLD-1 cells (containing KRAS G13D mutation) were purchased from the Cell Resource Center of Shanghai Institutes for Biological Sciences, Chinese Academy of Sciences.
The experimental process can be briefly described as follows: DLD-1 cells were cultured in RPMI 1640 complete medium containing 10% fetal bovine serum, 100 U penicillin, 100 μg/mL streptomycin and 1 mM Sodium Pyruvate. DLD-1 cells were plated in a 96-well plate at 30,000 cells per well, after cultured overnight in 5% CO2 incubator at 37° C. with complete culture medium. The test compounds were dissolved in DMSO to prepare storage solutions of 10 mM, and then diluted with RPMI 1640 basic mediums. 90 μL of RPMI 1640 basic mediums containing the test compounds at the corresponding concentration were added to each well. The final concentrations of the test compounds in the reaction system were 10,000 nM to 0.15 nM, and were placed in a cell culture incubator for 3 hours and 40 minutes. Subsequently, 10 μL of hEGF (purchased from Roche, Art. No. 11376454001) prepared with RPMI 1640 basic medium was added to a final concentration of 5 nM, and placed in the incubator for culturing for 20 minutes. The cell supernatant was discarded, and the cells were washed with PBS on ice-bath. Then, 45 μl of 1× cell phospho/total protein lysis buffer (component of Advanced phospho-ERK1/2 kit) was added to each well for lysis. The 96-well plate was placed on ice for 0.5 hours to lyse, and then the lysate was detected according to the instruction of the Advanced phospho-ERK1/2 (Thr202/tyr2O4) kit. Finally, the microplate reader was used in […] mode to measure the fluorescence intensity of each well emitting wavelengths of 620 nm and […] under the excitation wavelength of 304 nm, and the fluorescence intensity ratio 665/620 in each well was calculated. By comparing with the fluorescence intensity ratio of a control group (0.1% DMSO), the percentage inhibition rates of the test compounds at each concentration were calculated, and the IC50 values of the compounds were obtained by performing nonlinear regression analysis with logarithmic values of the compound concentration-inhibition rate by GraphPad Prism 5 software, which can be seen in Table 3.

The test system of data set [3] is NCI-H358 cells. The experiment in a line: Inhibition of NCI-H358 cell proliferation under 3D non-anchored conditions (CellTiter-Glo 3D). Type of data set: cell-based. Particulars: Homo sapiens, NCI-H358 cells (KRAS G12C mutation), 120 hours. The procedure: The following method was used to determine the effects of the compounds of the present invention on NCI-H358 cell proliferation under three-dimensional (3D) non-anchored conditions. NCI-H358 cells (containing KRAS G12C mutation) were purchased from the Cell Resource Center of Shanghai Institutes for Biological Sciences, Chinese Academy of Sciences, and cultured in RPMI 1640 medium containing 10% fetal bovine serum, 100 U penicillin, 100 μg/mL streptomycin and 1 mM Sodium Pyruvate. The activities of the cells were determined by CellTiter-Glo® 3D Cell Viability Assay Kit (Promega, Art. No. G9683).
The experimental method was operated according to the steps in the kit instruction, which can be briefly described as follows: the test compounds were first dissolved in DMSO to prepare storage solutions of 10 mM, and then diluted with culture mediums to prepare test samples. The final concentrations of the compounds were 10000 nM to 0.15 nM. Cells in logarithmic phase were inoculated in an ultra-low adsorption 384-well cell culture plate (PerkinElmer, #3830) with 2000 cells per well, and the test compounds were added and cultured for 120 hours. After the culture was completed, 30 μL of CellTiter-Glo 3D detection solution was added to each well, shaken for 30 minutes and then stood for 120 minutes. Then, a Luminescence mode was used to read the luminescence values of each well of the samples on a microplate reader. By comparing with the numerical value of a control group (0.1% DMSO), the percentage inhibition rates of the compounds at each concentration were calculated, and the IC50 values of the compounds inhibiting cell proliferation were obtained by performing nonlinear regression analysis with logarithmic values of the compound concentration-inhibition rate by GraphPad Prism 5 software, which can be seen in Table 4.

Data set [4] can be described thus: Pharmacokinetic evaluation in ICR mice. In kind it is in vivo. Particulars: male, mouse, plasma, PO 10 mg/kg; for AUC(0-t): read-out: Area under curve AUC0-t; for half-life: read-out: Half-life T1/2 (converted); for Cmax: read-out: Plasma concentration Cmax. The text has this:
ICR normal mice were used as test animals, and LC/MS/MS was used to determine the drug concentrations at different moments in plasma of ICR mice by intragastric administration. The pharmacokinetic behavior of the compounds of the present invention in ICR mice was studied to evaluate the pharmacokinetic characteristics of the above compounds.
Compound 4, Compound 26 and Compound 32.
ICR mice, male, 27.8-38 g, were purchased from Zhejiang Vital River Laboratory Animal Technology Co., Ltd.
An appropriate amount of the compound was weighed, and DMA:30% Solutol HS-15:Saline=5:5:90 (v/v/v) was used as the solvent to prepare a fully dissolved solution, and then administered to obtain a 1 mg/mL colorless solution.
The ICR mice in the intragastric group of each compound to be tested (nine mice in each group) were fasted overnight followed by intragastric administration (administration dosage was 10 mg/kg and the administration volume was 10 mL/kg), and ate 4 hours after administration.
0.1 mL of blood was collected via orbit before administration and 0.25 hour, 0.5 hour, 1 hour, 2 hours, 4 hours, 8 hours, 12 hours, and 24 hours after administration, and placed in EDTA-K2 anticoagulant tubes. The collected blood samples were placed on ice, and plasma was separated by centrifugation (centrifugation condition: 1500 g, 10 minutes). The collected plasma samples were stored at −40˜−20° C. before analysis.
(§1) LC-MS/MS was used to determine the content of the compound to be tested in mouse plasma after intragastric administration.

Data set [5] can be described thus: Pharmacokinetic evaluation in Balb/c mice. Type of data set: in vivo. Particulars: male, mouse, plasma, PO 10 mg/kg; for AUC(0-t): read-out: Area under curve AUC0-t; for half-life: read-out: Half-life T1/2 (converted); for Cmax: read-out: Plasma concentration Cmax.
Text: Balb/c normal mice were used as test animals, and LC/MS/MS was used to determine the drug concentrations at different moments in plasma of balb/c mice by intragastric administration. The pharmacokinetic behavior of the compounds of the present invention in Balb/c mice was studied to evaluate the pharmacokinetic characteristics of the above compounds.
Compound 27 and Compound 30.
Nine Balb/c normal mice, male, were evenly divided into 3 groups, with 3 mice in each group, purchased from Zhejiang Vital River Laboratory Animal Technology Co., Ltd.
An appropriate amount of the compound was weighed, and DMA:30% Solutol HS-15:Saline=5:5:90 (v/v/v) was used as the solvent to prepare a fully dissolved solution with a concentration of 1 mg/mL.
The mice in the intragastric group of each compound to be tested (nine mice in each group) were fasted overnight followed by intragastric administration (administration dosage was 10 mg/kg and the administration volume was 10 mL/kg), and ate 4 hours after administration.
0.1 mL of blood was collected via jugular vein before administration and 0.25 hour, 0.5 hour, 1 hour, 2 hours, 4 hours, 6 hours, 8 hours, and 24 hours after administration, and placed in 0.1% sodium heparin anticoagulant test tubes. The collected blood samples were placed on ice, and plasma was separated by centrifugation (centrifugation condition: 7000 g, 5 minutes). The collected plasma samples were stored at −80° C. before analysis.
as §1

For `COc1cc2nc(C)nc(N[C@H](C)c3cccc(C#N)c3C)c2cc1N1CCC(C(=O)N(C)C)CC1` [Compound 22, (R)-1-(4-((1-(3-cyano-2-methylphenyl)ethyl)amino)-7-methoxy-2-methylquinazolin-6-yl)-N, N-dimethylpiperidine-4-carboxamide], the IC50 in data set [1] stood at 7.2 nM; in data set [2] it was 20.9 nM; in data set [3] it was 15.1 nM.
In data set [1], `CC(=O)c1cc2nc(C)nc(N[C@H](C)c3cccc(C#N)c3C)c2cc1N1CCC2(CC1)COC2` [Compound 26, (R)-3-(1-((7-acetyl-2-methyl-6-(2-oxa-7-azaspiro[3.5]nonan-7-yl)quinazolin-4-yl)amino)ethyl)-2-methylbenzonitrile] showed an IC50 of 17.4 nM. Moreover, in data set [4], the AUC(0-t) was determined as 7700 ng·h/mL, the half-life is 1.98 h and the Cmax was determined as 2830 ng/mL.
Consider `COc1cc2nc(C)nc(N[C@H](C)c3cccc(C#N)c3C)c2cc1N1CCC(N2CCN(C(C)=O)CC2)CC1` [Compound 27, (R)-3-(1-((6-(4-(4-acetylpiperazin-1-yl)piperidin-1-yl)-7-methoxy-2-methylquinazolin-4-yl)amino)ethyl)-2-methylbenzonitrile], for which the IC50 in data set [2] is 31.2 nM. For the same compound, in data set [5], the AUC(0-t) was found to be 4660 ng·h/mL, the half-life was 4.91 h and the Cmax turned out to be 1150 ng/mL.
As to `CCOC(=O)N1CCN(c2cc3c(N[C@H](C)c4cccc(C#N)c4C)nc(C)nc3cc2OC)CC1` [Compound 30, ethyl (R)-4-(4-((1-(3-cyano-2-methylphenyl)ethyl)amino)-7-methoxy-2-methylquinazolin-6-yl)piperazine-1-carboxylate], in data set [5], the AUC(0-t) is 10800 ng·h/mL, the half-life is 0.79 h and the Cmax turned out to be 4660 ng/mL.
As for `COc1cc2nc(C)nc(N[C@H](C)c3cccc(C#N)c3C)c2cc1C1(OC)CCN(C(C)=O)CC1` [Compound 32, (R)-3-(1-((6-(1-acetyl-4-methoxypiperidin-4-yl)-7-methoxy-2-methylquinazolin-4-yl)amino)ethyl)-2-methylbenzonitrile], in data set [4], the AUC(0-t) turned out to be 22100 ng·h/mL, the half-life is 2.29 h and the Cmax stood at 5610 ng/mL.
